From patent EP4428122A1, “SORTILINE MODULATORS” (Vesper Bio Aps, priority 2023, dated 2024)

Experiments:
h-Sortilin = molecular target: T1, h-Sortilin (Homo sapiens, UniProt Q99523); assay: Neurotensin scintillation proximity assay (SPA), displacement of [3H]-neurotensin binding; settings: 150 nM 6his-Sortilin, 5 nM [3H]-Neurotensin, 8 concentrations, average of at least 2 determinations
T1 sequence (Q99523 78-831): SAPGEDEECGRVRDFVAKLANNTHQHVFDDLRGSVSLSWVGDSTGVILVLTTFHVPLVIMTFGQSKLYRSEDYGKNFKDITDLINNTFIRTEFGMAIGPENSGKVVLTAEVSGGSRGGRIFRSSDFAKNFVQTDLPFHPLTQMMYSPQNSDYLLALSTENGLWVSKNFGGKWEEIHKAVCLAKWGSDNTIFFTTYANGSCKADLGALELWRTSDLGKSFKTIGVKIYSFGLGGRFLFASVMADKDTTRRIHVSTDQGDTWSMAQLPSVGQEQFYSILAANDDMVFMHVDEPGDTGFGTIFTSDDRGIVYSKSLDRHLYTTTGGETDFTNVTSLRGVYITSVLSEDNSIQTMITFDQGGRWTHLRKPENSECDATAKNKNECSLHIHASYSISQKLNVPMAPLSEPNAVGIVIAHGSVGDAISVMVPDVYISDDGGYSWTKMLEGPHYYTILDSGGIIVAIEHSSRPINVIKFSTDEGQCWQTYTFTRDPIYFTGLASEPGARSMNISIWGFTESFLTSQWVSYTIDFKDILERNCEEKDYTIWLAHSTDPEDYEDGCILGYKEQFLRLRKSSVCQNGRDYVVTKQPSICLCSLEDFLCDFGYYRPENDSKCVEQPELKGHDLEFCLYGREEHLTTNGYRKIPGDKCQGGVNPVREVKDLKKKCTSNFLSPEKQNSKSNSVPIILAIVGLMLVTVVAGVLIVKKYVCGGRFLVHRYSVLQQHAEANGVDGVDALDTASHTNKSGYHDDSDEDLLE
Protocol: The exemplified compounds of the invention were tested in a Neurotensin (NTS) scintillation proximity assay (SPA). NTS, which is a 13 amino acid neuropeptide, is a sortilin ligand. The IC50 is a measure of the amount of the compound required to inhibit the binding of NTS to sortilin by 50%. The skilled person will recognise that the lower the IC50 value, the less of the compound needed to achieve the desired effect, and as a result, the chances of undesirable off-target effects are reduced.
Compound affinity was determined by measuring the displacement of [^3H]-neurotensin binding to h-Sortilin in SPA format. Total volume of 40 µl in 50 mM HEPES pH 7.4 assay buffer containing 100 mM NaCl, 2.0 mM CaCl2, 0.1% BSA and 0.1% Tween-20. Compound pre-incubation for 30 minutes at room temperature with 150 nM of 6his-Sortilin before 5 nM [3H]-Neurotensin and Ni chelate imaging beads (Perkin Elmer) were added, after 6 hours the plate was read on a ViewLux with 360 s exposure time. Dose-response evaluation of compounds was performed with 8 concentrations of drugs (covering 3 decades). IC50 values were calculated by nonlinear regression using the sigmoid concentration-response (variable slope) using CDD Vault software. All values reported are average of at least 2 determinations.

Human (6-His)Sortilin = molecular target: T2, Human (6-His)Sortilin (Homo sapiens, UniProt Q99523); assay: Human Sortilin GCI (Grating-Coupled Interferometry) binding assay; settings: Creoptix WAVE-RAPID, single concentration, immobilised Human (6-His)Sortilin, 1:1 kinetic binding model; read-out: h-Sortilin GCI KD
T2 construct: purchased RnD Systems
T2 sequence (Q99523 78-831): T1 sequence (Q99523 78-831)
Protocol: The exemplified compounds of the invention were tested in a Grating-Coupled Interferometry (GCI) Sortilin binding assay. The Equilibrium dissociation constant (KD) is a measure of the propensity of a complex (i.e: a ligand and receptor) to dissociate and is used to describe the affinity of an interaction between the constituents of the complex (i.e: a ligand and receptor). The skilled person will recognise that the lower the KD value, the less of the compound needed to achieve the desired effect, and as a result, the chances of undesirable off-target effects are reduced.
Compound affinity was determined by measuring the association and dissociation of compounds to Human (6-His)Sortilin (RnD Systems) using a Creoptix Wave instrument (Creoptix - Malvern Panalytical). Both Human (6-His)Sortilin immobilisation and compound evaluation were performed in HBS-N running buffer: 10 mM HEPES pH 7.4, 150 mM NaCl, 1 % DMSO - Cytiva which was filtered and degassed for 15 minutes before use.
A 4PCH WAVEchip (Creoptix - Malvern Panalytical) was conditioned prior to immobilisiation using 0.2x HBS-N running buffer with 0.1 M Borate pH 9.0, 1 M NaCl (Xantec Bioanalytics) injected across all flow cells. A buffer exchange was performed to 1x HBS-N running buffer and Human (6-His)Sortilin was immobililised in pH 5.0 Acetate solution (Cytiva) via amine coupling following EDC/NHS (Cytiva) surface activation and then passivated via injection of 50 mM Tris pH 7.4.
Compounds were tested in 'WAVE-RAPID' assays at a single concentration (usually: 1 µM, 10 µM or 100 µM) in time-response format (short pulses of increasing duration) using either 'Weak-Binders' (Settings: 400 µl/min flow rate, 40 Hz acquisiton rate, 5 seconds association time and 20 seconds dissociation time) or 'Intermediate Binders' (Settings: 100 µl/min flow rate, 10 Hz acquisiton rate, 25 seconds association time and 300 seconds dissociation time) settings. Which was deemed most appropriate was based upon the affinity and kinetics of the compound tested.
DMSO calibration was performed as per manufacturers requirements by injection of running buffer containing DMSO 0.5% above that of the running buffer DMSO (1.5 % in that instance) every 20 cycles. All data was double referenced (blank and reference-channel subtracted) with KD values calculated by fitting to a `1:1 kinetic' binding model using 'WAVEcontrol' software (Creoptix - Malvern Panalytical).

Row | Compound | IC50 (h-Sortilin) | Kd (Human (6-His)Sortilin)
1 | CC(C)(C)CCC(C)(NCc1ccc2c(c1)CCC2)C(=O)O (racemic) [Example 4, 2-{[(5-indanyl)methyl]amino}-2,5,5-trimethylhexanoic acid] | 1070 nM | –
2 | CC(C)(C)CCC(C)(NCc1ccc2c(c1)CCCO2)C(=O)O (racemic) [Example 6, 2-{[(6-chromanyl)methyl]amino}-2,5,5-trimethylhexanoic acid] | – | 760 nM
3 | CC(C)(C)CCC(C)(NCc1ccc2c(c1)CCOC2)C(=O)O (racemic) [Example 7, 2-{[(6-isochromanyl)methyl]amino}-2,5,5-trimethylhexanoic acid] | – | 509 nM
4 | CC(C)(C)CCC(C)(NCc1ccc2c(c1)CCCC2)C(=O)O (stereo not drawn) [Example 1, 2,5,5-trimethyl-2-(((5,6,7,8-tetrahydronaphthalen-2-yl)methyl)amino)hexanoic acid] | 740 nM | 304 nM

More lines, now with the values ahead:

Row | IC50 (h-Sortilin) | Kd (Human (6-His)Sortilin) | Compound
5 | – | 713 nM | CC(C)(C)CCC(C)(NCc1ccc2c(c1)OCCC2)C(=O)O (racemic) [Example 5, 2-{[(7-chromanyl)methyl]amino}-2,5,5-trimethylhexanoic acid]
6 | – | 587 nM | CC(C)(C)CCC(C)(NCc1ccc2c(c1)COCC2)C(=O)O (racemic) [Example 8, 2-{[(7-isochromanyl)methyl]amino}-2,5,5-trimethylhexanoic acid]
7 | 440 nM | 79 nM | CC(C)(C)CC[C@](C)(NCc1ccc2c(c1)CCCC2)C(=O)O [Example 2, (S)-2,5,5-trimethyl-2-(((5,6,7,8-tetrahydronaphthalen-2-yl)methyl)amino)hexanoic acid]
